“And” between values parts separate entries of the source, which are not always exact repeats. Equal values may be shown once.
What was measured:
BoNT/A LC = BoNT/A LC (Clostridium botulinum, UniProt P0DPI0); assay: biochemical; assay type: biochemical, C. botulinum; details: for inhibition at 100 µM: read-out: % of Inhibition at 100 μM
[1] = biological target: recombinant light chain A (rLCA) (Clostridium botulinum, UniProt P0DPI0); assay: biochemical; design: species or system C. botulinum
BoNT/A = BoNT/A (Clostridium botulinum, UniProt P0DPI0); assay type: cell-based, C. botulinum
LC of BoNT/A = LC of BoNT/A (Clostridium botulinum, UniProt P0DPI0); assay: biochemical; assay type: biochemical, C. botulinum
Chain of LC of BoNT/A (P0DPI0 2-448 limits assumed): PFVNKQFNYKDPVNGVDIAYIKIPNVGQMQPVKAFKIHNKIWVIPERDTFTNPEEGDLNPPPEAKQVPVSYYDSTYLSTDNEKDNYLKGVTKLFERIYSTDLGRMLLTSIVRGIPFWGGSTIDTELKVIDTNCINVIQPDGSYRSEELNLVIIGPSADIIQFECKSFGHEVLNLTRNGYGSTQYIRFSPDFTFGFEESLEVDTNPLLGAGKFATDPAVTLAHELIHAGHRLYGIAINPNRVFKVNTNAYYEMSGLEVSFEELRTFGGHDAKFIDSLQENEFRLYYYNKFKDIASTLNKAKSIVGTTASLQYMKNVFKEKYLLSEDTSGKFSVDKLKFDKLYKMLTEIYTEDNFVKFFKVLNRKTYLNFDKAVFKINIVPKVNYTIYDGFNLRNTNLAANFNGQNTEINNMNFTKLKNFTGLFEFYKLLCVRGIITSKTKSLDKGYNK

Chain of BoNT/A LC (P0DPI0 2-448 limits assumed): as above
Chain of recombinant light chain A (rLCA) (P0DPI0 2-448 limits assumed): as above
Chain of BoNT/A (P0DPI0 whole entry, looked up): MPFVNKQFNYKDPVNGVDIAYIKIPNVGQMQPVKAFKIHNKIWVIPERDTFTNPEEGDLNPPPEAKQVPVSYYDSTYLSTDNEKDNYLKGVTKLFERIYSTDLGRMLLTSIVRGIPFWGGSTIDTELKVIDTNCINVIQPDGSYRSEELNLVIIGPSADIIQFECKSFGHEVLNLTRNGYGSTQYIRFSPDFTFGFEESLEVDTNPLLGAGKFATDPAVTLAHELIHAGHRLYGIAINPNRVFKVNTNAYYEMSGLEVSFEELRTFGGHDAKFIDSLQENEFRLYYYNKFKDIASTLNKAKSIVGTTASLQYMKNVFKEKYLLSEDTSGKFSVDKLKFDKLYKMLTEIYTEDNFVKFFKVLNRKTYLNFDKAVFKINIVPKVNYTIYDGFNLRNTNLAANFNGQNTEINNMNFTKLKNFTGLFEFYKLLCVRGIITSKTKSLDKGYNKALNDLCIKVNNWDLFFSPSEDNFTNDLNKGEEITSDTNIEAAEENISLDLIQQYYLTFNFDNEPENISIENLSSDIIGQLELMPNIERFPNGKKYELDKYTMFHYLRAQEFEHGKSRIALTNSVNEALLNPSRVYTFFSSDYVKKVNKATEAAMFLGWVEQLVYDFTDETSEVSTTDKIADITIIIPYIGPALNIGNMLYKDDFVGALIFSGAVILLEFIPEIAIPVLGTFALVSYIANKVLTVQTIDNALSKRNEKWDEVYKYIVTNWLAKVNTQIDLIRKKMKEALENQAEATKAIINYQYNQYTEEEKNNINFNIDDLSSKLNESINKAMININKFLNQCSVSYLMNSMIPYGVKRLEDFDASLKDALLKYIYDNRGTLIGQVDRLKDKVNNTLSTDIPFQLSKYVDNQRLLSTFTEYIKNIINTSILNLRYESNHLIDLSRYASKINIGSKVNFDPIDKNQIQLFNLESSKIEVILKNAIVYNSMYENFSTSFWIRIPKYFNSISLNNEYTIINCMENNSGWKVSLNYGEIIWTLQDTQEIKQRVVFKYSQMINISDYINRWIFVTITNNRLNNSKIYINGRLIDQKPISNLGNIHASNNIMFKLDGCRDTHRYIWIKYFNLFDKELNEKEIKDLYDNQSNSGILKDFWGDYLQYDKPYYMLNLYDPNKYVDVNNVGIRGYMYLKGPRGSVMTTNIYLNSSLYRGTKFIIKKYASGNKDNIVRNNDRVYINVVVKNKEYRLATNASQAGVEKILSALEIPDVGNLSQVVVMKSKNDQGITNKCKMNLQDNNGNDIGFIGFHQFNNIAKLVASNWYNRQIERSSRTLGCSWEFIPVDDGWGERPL

Structure (SMILES)	IC50 (BoNT/A LC)	inhibition at 100 µM (BoNT/A LC)	IC50 [1]	inhibition of endogenous SNAP-25 cleavage in M-17-TR2 cells (BoNT/A)	concentration at which near 100% inhibition (saturation) is reached (BoNT/A LC)	Vmax (LC of BoNT/A)	type of inhibition (LC of BoNT/A)	α (LC of BoNT/A)	α′ (LC of BoNT/A)	Ki (LC of BoNT/A; Ki value)	inhibition of SNAP-25 cleavage by BoNT/A in M17 cells (BoNT/A)
O=C(O)CCCCC1CCSS1 (stereo not drawn) [Compound 7, 5-(1,2-Dithiolan-3-yl)-pentanoic acid]	5.06 ± 0.055 µM	90.5%	> 20 µM								
Cc1c(C(=O)O)c(O)cc2c1C(=O)c1c(O)c([C@@H]3O[C@H](CO)[C@@H](O)[C@H](O)[C@H]3O)c(O)c(O)c1C2=O [Compound 8, carminic acid]	6.8 ± 0.035 µM	85.1%	> 20 µM								
O=c1c(O)c(-c2ccc(O)c(O)c2)oc2c(O)c(O)cc(O)c12 [Compound 10, 2-(3,4-dihydroxyphenyl)-3,5,7,8-tetrahydroxychromen-4-one]	0.27 ± 0.0049 µM	104%	0.239 µM	significantly inhibit							
O=c1oc2c3c4c(cc2c2c1CCC2)CCCN4CCC3 [Compound 9, 2,3,6,7,10,11-Hexahydro-1H,5H-cyclopenta[3,4][1]benzopyrano[6,7,8-ij]quinolizin-12(9H)-one]	9.3 ± 1.59 µM	83.3%	> 20 µM	significantly inhibit							
O=c1ccc2cc3c(-c4ccc([N+](=O)[O-])cc4)coc3cc2o1 [Compound 1, 3-(4-nitrophenyl)-7H-furo[3,2-g][1]benzopyran-7-one]	6.5 µM	100%	10 µM	significantly inhibit	about 81 μM	2.064 RFU/s and 2.79 RFU/s and 2.55 RFU/s	non-competitive inhibition	2.76 (±1.12) and 1.38 (±0.33) and 1.8 (±0.30)	1.705 (±0.79) and 1.155 (±0.18) and 1.24 (±0.12)	14.2 µM and 17.5 µM and 14.7 µM	showed inhibition
Cc1cc2c(C(C)C)c(O)c(O)c(C=O)c2c(O)c1-c1c(C)cc2c(C(C)C)c(O)c(O)c(C=O)c2c1O [Compound 4, 2, 2′-Bis(formyl-1,6,7-trihydroxy-5-isopropyl-3-methylnaphthalene)]	3.15 ± 0.043 µM	100%	11.4 µM								
O=c1oc2c(O)c(O)cc3c(=O)oc4c(O)c(O)cc1c4c23 [Compound 2, 2,3,7,8-Tetrahydroxy-chromeno[5,4,3-cde]chromene-5,10-dione]	0.65 ± 0.032 µM	101%	1.62 µM								
O=C1c2ccccc2C(=O)c2c(O)c(O)cc(O)c21 [Compound 6, 1,2,4-trihydroxyanthracene-9,10-dione]	4.5 ± 0.0091 µM	100%	11.6 µM	significantly inhibit							
CCCCCCCCCCCC1=C(O)C(=O)C=C(O)C1=O [Compound 5, 2,5-dihydroxy-3-undecylcyclohexa-2,5-diene-1,4-dione]	4.5 ± 0.035 µM	100%	13.5 µM								
O=C1C=C2CC3(O)COc4c(ccc(O)c4O)C3=C2C=C1O (stereo not drawn) [Compound 3, 3,4,6a, 10-Tetrahydroxy-6,7-dihydroindeno[2,1-c]chromen-9-one]	2.97 ± 0.048 µM	92.7%	0.86 µM	significantly inhibit							

Reference: patent publication US20180147223A1 (priority 2016, published 2018)
